Measurements as given in ChEMBL document CHEMBL3045992, “Antitumour activity of 5-[(2E)-1-(1H-benzimidazol-2-yl)-3-substituted phenylprop-2-en-1-ylidene] pyrimidine-2,4,6(1H,3H,5H)-triones against Daltons ascitic lymphoma in mice” (Med Chem Res, 2013).

Experiments:
[1] = Antitumor activity against Mus musculus (mouse) DLA cells transplanted in Swiss albino mouse assessed as decrease in cholesterol level at 50 mg/kg, ip qd administered 24 hr post tumor transplantation for 14 days measured on day 14 (reference value: 140.86 +/- 4.6 mg/dl); format: functional; conditions: route intraperitoneal
[2] = Antitumor activity against Mus musculus (mouse) DLA cells transplanted in Swiss albino mouse assessed as decrease in total WBC count measured 10^3 cells at 50 mg/kg, ip qd administered 24 hr post tumor transplantation for 14 days measured on day 14 (reference value: 14.40 +/- 2.5 ml); format: functional; set-up: unit not given here; conditions: route intraperitoneal
[3] = Antitumor activity against Mus musculus (mouse) DLA cells transplanted in Swiss albino mouse assessed as decrease in aspartate amino transferase level at 50 mg/kg, ip qd administered 24 hr post tumor transplantation for 14 days measured on day 14 (reference value: 85.6 +/- 2.72 U/L); format: functional; conditions: route intraperitoneal
[4] = Antitumor activity against Mus musculus (mouse) DLA cells transplanted in Swiss albino mouse assessed as increase in platelet count at 50 mg/kg, ip qd administered 24 hr post tumor transplantation for 14 days measured on day 14 (reference value: 1.6 +/- 0.52 lakhs/mm3); format: functional; conditions: route intraperitoneal
[5] = Antitumor activity against Mus musculus (mouse) DLA cells transplanted in Swiss albino mouse assessed as decrease in body weight at 50 mg/kg, ip qd administered 24 hr post tumor transplantation for 14 days measured on day 14 (reference value: 7.6 +/- 0.94 g); format: functional; conditions: route intraperitoneal
[6] = Antitumor activity against Mus musculus (mouse) DLA cells transplanted in Swiss albino mouse assessed as increase in haemoglobin level at 50 mg/kg, ip qd administered 24 hr post tumor transplantation for 14 days measured on day 14 (reference value: 7.12 +/- 0.95 g/dl); format: functional; conditions: route intraperitoneal
[7] = Antitumor activity against Mus musculus (mouse) DLA cells transplanted in Swiss albino mouse assessed as decrease in packed cell volume at 50 mg/kg, ip qd administered 24 hr post tumor transplantation for 14 days measured on day 14 (reference value: 30.55 +/- 3.52%); format: functional; set-up: scale not given: the % may be the effect or the level left; conditions: route intraperitoneal
[8] = Antitumor activity against Mus musculus (mouse) DLA cells transplanted in Swiss albino mouse assessed as decrease in alkaline phosphatase level at 50 mg/kg, ip qd administered 24 hr post tumor transplantation for 14 days measured on day 14 (reference value: 242.22 +/- 4.3 U/L); format: functional; conditions: route intraperitoneal
[9] = test system: Mus musculus; assay: Acute toxicity in ip dosed albino Mus musculus (mouse) after 24 hr; format: organism-based; conditions: in vivo
[10] = Antitumor activity against Mus musculus (mouse) DLA cells transplanted in Swiss albino mouse assessed as increase in life span at 50 mg/kg, ip qd administered 24 hr post tumor transplantation for 14 days measured on day 14 (reference value: 50%); format: functional; conditions: route intraperitoneal
[11] = Antitumor activity against Mus musculus (mouse) DLA cells transplanted in Swiss albino mouse assessed as decrease in cancer cell count measured 10^6 cells at 50 mg/kg, ip qd administered 24 hr post tumor transplantation for 14 days measured on day 14 (reference value: 2.76 +/- 0.33 ml); format: functional, Cancer cell lines; conditions: route intraperitoneal
[12] = Antitumor activity against Mus musculus (mouse) DLA cells transplanted in Swiss albino mouse assessed as decrease in triglyceride level at 50 mg/kg, ip qd administered 24 hr post tumor transplantation for 14 days measured on day 14 (reference value: 210.12 +/- 4.65 mg/dl); format: functional; conditions: route intraperitoneal
[13] = Antitumor activity against Mus musculus (mouse) DLA cells transplanted in Swiss albino mouse assessed as decrease in alanine amino transferase level at 50 mg/kg, ip qd administered 24 hr post tumor transplantation for 14 days measured on day 14 (reference value: 61.2 +/- 2.6 U/L); format: functional; conditions: route intraperitoneal
[14] = Antitumor activity against Mus musculus (mouse) DLA cells transplanted in Swiss albino mouse assessed as increase in RBC count at 50 mg/kg, ip qd administered 24 hr post tumor transplantation for 14 days measured on day 14 (reference value: 2.46 +/- 0.45 million/mm3); format: functional; conditions: route intraperitoneal
[15] = Antitumor activity against Mus musculus (mouse) DLA cells transplanted in Swiss albino mouse assessed as decrease in cancer cell count measured 10^6 cells at 20 mg/kg, ip qd administered 24 hr post tumor transplantation for 14 days measured on day 14 (reference value: 2.76 +/- 0.33 ml); format: functional, Cancer cell lines; conditions: route intraperitoneal
[16] = Antitumor activity against Mus musculus (mouse) DLA cells transplanted in Swiss albino mouse assessed as decrease in alkaline phosphatase level at 20 mg/kg, ip qd administered 24 hr post tumor transplantation for 14 days measured on day 14 (reference value: 242.22 +/- 4.3 U/L); format: functional; conditions: route intraperitoneal
[17] = Antitumor activity against Mus musculus (mouse) DLA cells transplanted in Swiss albino mouse assessed as decrease in total WBC count measured 10^3 cells at 20 mg/kg, ip qd administered 24 hr post tumor transplantation for 14 days measured on day 14 (reference value: 14.40 +/- 2.5 ml); format: functional; conditions: route intraperitoneal
[18] = Antitumor activity against Mus musculus (mouse) DLA cells transplanted in Swiss albino mouse assessed as decrease in body weight at 20 mg/kg, ip qd administered 24 hr post tumor transplantation for 14 days measured on day 14 (reference value: 7.6 +/- 0.94 g); format: functional; conditions: route intraperitoneal
[19] = Antitumor activity against Mus musculus (mouse) DLA cells transplanted in Swiss albino mouse assessed as increase in haemoglobin level at 20 mg/kg, ip qd administered 24 hr post tumor transplantation for 14 days measured on day 14 (reference value: 7.12 +/- 0.95 g/dl); format: functional; conditions: route intraperitoneal
[20] = Antitumor activity against Mus musculus (mouse) DLA cells transplanted in Swiss albino mouse assessed as increase in RBC count at 20 mg/kg, ip qd administered 24 hr post tumor transplantation for 14 days measured on day 14 (reference value: 2.46 +/- 0.45 million/mm3); format: functional; conditions: route intraperitoneal
[21] = Antitumor activity against Mus musculus (mouse) DLA cells transplanted in Swiss albino mouse assessed as decrease in triglyceride level at 20 mg/kg, ip qd administered 24 hr post tumor transplantation for 14 days measured on day 14 (reference value: 210.12 +/- 4.65 mg/dl); format: functional; conditions: route intraperitoneal
[22] = Antitumor activity against Mus musculus (mouse) DLA cells transplanted in Swiss albino mouse assessed as decrease in cholesterol level at 20 mg/kg, ip qd administered 24 hr post tumor transplantation for 14 days measured on day 14 (reference value: 140.86 +/- 4.6 mg/dl); format: functional; conditions: route intraperitoneal
[23] = Antitumor activity against Mus musculus (mouse) DLA cells transplanted in Swiss albino mouse assessed as decrease in packed cell volume at 20 mg/kg, ip qd administered 24 hr post tumor transplantation for 14 days measured on day 14 (reference value: 30.55 +/- 3.52%); format: functional; set-up: scale not given: the % may be the effect or the level left; conditions: route intraperitoneal
[24] = Antitumor activity against Mus musculus (mouse) DLA cells transplanted in Swiss albino mouse assessed as decrease in aspartate amino transferase level at 20 mg/kg, ip qd administered 24 hr post tumor transplantation for 14 days measured on day 14 (reference value: 85.6 +/- 2.72 U/L); format: functional; conditions: route intraperitoneal
[25] = Antitumor activity against Mus musculus (mouse) DLA cells transplanted in Swiss albino mouse assessed as decrease in alanine amino transferase level at 20 mg/kg, ip qd administered 24 hr post tumor transplantation for 14 days measured on day 14 (reference value: 61.2 +/- 2.6 U/L); format: functional; conditions: route intraperitoneal
[26] = Antitumor activity against Mus musculus (mouse) DLA cells transplanted in Swiss albino mouse assessed as increase in platelet count at 20 mg/kg, ip qd administered 24 hr post tumor transplantation for 14 days measured on day 14 (reference value: 1.6 +/- 0.52 lakhs/mm3); format: functional; conditions: route intraperitoneal
[27] = Antitumor activity against Mus musculus (mouse) DLA cells transplanted in Swiss albino mouse assessed as increase in life span at 20 mg/kg, ip qd administered 24 hr post tumor transplantation for 14 days measured on day 14 (reference value: 50%); format: functional; conditions: route intraperitoneal

Compound | Activity [1] [mg/dL] | Activity [2] | Activity [3] [U/L] | Activity [4] [×10⁵ /mm3] | Activity [5] [g] | Activity [6] [g/dL] | Activity [7] [%] | Activity [8] [U/L] | ED50 [9] [mg/kg] | Activity [10] [%] | Activity [11] [mL] | Activity [12] [mg/dL] | Activity [13] [U/L] | Activity [14] [million/mm3] | other results
CN(C)c1ccc(/C=C/C(=C2C(=O)NC(=O)NC2=O)c2nc3ccccc3[nH]2)cc1 | 124.3 | 12.5 | 73.4 | 2.22 | 5.9 | 10.42 | 22.42 | 210.21 | 50 | 74 | 1.9 | 172.4 | 51.45 | 3.25 | 
O=C1NC(=O)C(=C(/C=C/c2cccc([N+](=O)[O-])c2)c2nc3ccccc3[nH]2)C(=O)N1 | 122.3 | 12.45 | 72.6 | 2.3 | 5.88 | 10.5 | 20.48 | 202.85 | 50 | 76 | 1.88 | 168.7 | 53.42 | 3.3 | 
O=C1NC(=O)C(=C(/C=C/c2ccccc2O)c2nc3ccccc3[nH]2)C(=O)N1 | 131.3 | 13.45 | 75.4 | 2.05 | 5.43 | 10.1 | 23.68 | 229.15 | 50 | 69 | 2.03 | 178.7 | 56.42 | 2.8 | 
O=C1NC(=O)C(=C(/C=C/c2ccccc2)c2nc3ccccc3[nH]2)C(=O)N1 | 136.45 | 13.8 | 77.6 | 1.99 | 6.45 | 9.3 | 24.1 | 232.32 | 50 | 66 | 2.26 | 186.85 | 57.3 | 2.9 | 
O=C1NC(=O)C(=C(/C=C/c2ccc(Cl)cc2)c2nc3ccccc3[nH]2)C(=O)N1 | 129.32 | 12.7 | 76.52 | 2.1 | 6.6 | 10.3 | 23.1 | 223.36 | 50 | 70 | 2.12 | 182.5 | 55.6 | 3.1 | 
COc1ccc(/C=C/C(=C2C(=O)NC(=O)NC2=O)c2nc3ccccc3[nH]2)cc1 | 126.35 | 12.55 | 75.62 | 2.12 | 6.3 | 10.28 | 22.9 | 218.26 | 50 | 72 | 1.96 | 170.6 | 53.52 | 3.15 | 
O=c1[nH]cc(F)c(=O)[nH]1 [FLUOROURACIL] |  |  |  |  |  |  |  |  |  |  |  |  |  |  | Activity [15]: 1.3 mL; Activity [16]: 162.3 U/L; Activity [17]: 11.3 mL; Activity [18]: 3.7 g; Activity [19]: 11.5 g/dL; Activity [20]: 4.1 million/mm3; Activity [21]: 156.42 mg/dL; Activity [22]: 112.52 mg/dL; Activity [23]: 17.45%; Activity [24]: 56.3 U/L; Activity [25]: 42.45 U/L; Activity [26]: 2.65 ×10⁵ /mm3; Activity [27]: 94%
